Values quoted from earlier work, collected in patent US11191849B2, “Compositions and methods for delivering messenger RNA” (ARBUTUS BIOPHARMA CORPORATION, priority 2016, dated 2021).

| Structure (SMILES) | log P |
| --- | --- |
| CC(C)C(=O)OCC(=O)[C@@]12O[C@H](C3CCCCC3)O[C@@H]1C[C@H]1[C@@H]3CCC4=CC(=O)C=C[C@]4(C)[C@H]3[C@@H](O)C[C@@]12C [Ciclesonide] | ~5.3 |
| CCC(=O)O[C@]1(C(=O)CCl)[C@@H](C)C[C@H]2[C@@H]3CCC4=CC(=O)C=C[C@]4(C)[C@@]3(F)[C@@H](O)C[C@@]21C [Clobetasol, clobetasol-17-propionate] | ~3.5 |
| CCCCCCCCCCCCCCCC(=O)OCC(=O)[C@@]1(O)[C@H](C)C[C@H]2[C@@H]3CCC4=CC(=O)C=C[C@]4(C)[C@@]3(F)[C@@H](O)C[C@@]21C [Dex-P, Dexamethasone 21-palmitate] | ~9 |
